Laboratory results from ChEMBL document CHEMBL1221190, “Therapeutic intervention based on protein prenylation and associated modifications” (Nat Chem Biol, 2006).

Key:
[1] = Inhibition of GGTase1
[2] = Selectivity ratio of IC50 for farnesyltransferase to IC50 for GGTase1

IC50 [1]: 8 nM
Ratio IC50 [2]: 250
Compound: CSCCc1c(-c2cccnc2)nn(-c2ccc(Cl)c(Cl)c2)c1OCCCC(=O)N[C@@H](Cc1ccccc1)C(N)=O
